Measurements from PubChem BioAssay (NCI).
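Each compound was tested at five concentrations against cells in 96-well plates for 48 hours. TGI: concentration producing complete growth inhibition.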

Tests used:
Assay in all cases: growth of human tumour cells (NCI), 48 h
A498 renal = test system: A498 renal
CCRF-CEM leukemia = test system: CCRF-CEM leukemia
RXF 393 renal = test system: RXF 393 renal
ACHN renal = test system: ACHN renal
COLO 205 colon = test system: COLO 205 colon
DU-145 prostate = test system: DU-145 prostate
HCC-2998 colon = test system: HCC-2998 colon
U251 CNS = test system: U251 CNS
HCT-15 colon = test system: HCT-15 colon
MALME-3M melanoma = test system: MALME-3M melanoma

| SMILES | TGI (A498 renal) | TGI (CCRF-CEM leukemia) | TGI (RXF 393 renal) | TGI (ACHN renal) | TGI (COLO 205 colon) | TGI (DU-145 prostate) | TGI (HCC-2998 colon) | TGI (U251 CNS) | TGI (HCT-15 colon) | TGI (MALME-3M melanoma) |
| --- | --- | --- | --- | --- | --- | --- | --- | --- | --- | --- |
| Cc1ccccc1NC(=O)O/N=C(\Cl)C(C)C | 36.4 µM | > 21.7 µM | 25.1 µM | 3.13 µM | 3.29 µM | 31.5 µM | 31.5 µM | 39.9 µM | 4.17 µM | 5.73 µM |
| C=C1CCC[C@@H](C)C(O)[C@@H]2OC(=O)C(=C)[C@@H]2C[C@@H](OC(C)=O)[C@@]2(C)CC[C@@H]1O2 (stereo partly specified) | 19.2 µM | 6.8 µM | 12.9 µM | 13.4 µM | 13.4 µM | 14.3 µM | 14.9 µM | 17.8 µM | 10.6 µM | – |
| COC(=O)c1sc(=O)sc1SCc1cccc(CSc2sc(=O)sc2C(=O)OC)c1 | > 100 µM | > 100 µM | 73.2 µM | > 100 µM | > 100 µM | > 100 µM | > 100 µM | 34.3 µM | > 100 µM | 49.5 µM |
| COC(=O)C1=C(CCCCO[Si](C)(C)C(C)(C)C)NC(=O)N2[C@H](CCOCc3ccccc3)CC[C@@H]12 | > 100 µM | – | – | > 100 µM | > 100 µM | > 100 µM | > 100 µM | > 100 µM | > 100 µM | > 100 µM |
| CCOP(=O)(/C=C/n1cc(C)c(=O)[nH]c1=O)OCC | > 100 µM | > 100 µM | > 100 µM | > 100 µM | > 100 µM | > 100 µM | – | > 100 µM | > 100 µM | – |
| O=c1[nH]c(=O)n(COC(CO)CO)cc1-c1ccccc1 | – | > 100 µM | – | > 100 µM | > 100 µM | > 100 µM | > 100 µM | > 100 µM | > 100 µM | > 100 µM |
| CN(CCCCCl)P(=O)(OCc1ccc([N+](=O)[O-])o1)OCC1OC(n2ccc(N)nc2=O)C(O)C1O (stereo unspecified) | – | – | 60.2 µM | > 100 µM | 2.69 µM | 44.6 µM | 12.6 µM | 11.1 µM | > 100 µM | 8.36 µM |
| COc1ccc(N2C(=O)C3c4[nH]c5c(C)cccc5c4C4CCC(C(C)C)CC4C3C2=O)cc1 (stereo unspecified) | 32.8 µM | – | – | 47.2 µM | > 100 µM | 31.2 µM | 28.8 µM | 29.9 µM | 40.6 µM | 36.8 µM |
| Cn1c(=O)c2c(nc3[nH]c(=O)c(Br)cn32)n(C)c1=O | > 100 µM | > 100 µM | > 100 µM | > 100 µM | > 100 µM | > 100 µM | > 100 µM | > 100 µM | > 100 µM | – |
| C/C(=C1\N=C(c2ccccc2)OC1=O)c1ccccc1 | > 100 µM | > 100 µM | – | > 100 µM | > 100 µM | > 100 µM | > 100 µM | > 100 µM | > 100 µM | > 100 µM |
| Cc1nc(NC(C)(CO)CO)nc(N/N=C/c2ccc(Cl)cc2)c1C(=O)Nc1ccc(Cl)cc1 | – | > 100 µM | > 100 µM | > 100 µM | > 100 µM | > 100 µM | > 100 µM | > 100 µM | > 100 µM | > 100 µM |
| O=[N+]([O-])c1ccc(-n2nc3ccc4nonc4c3n2)cc1 | – | > 100 µM | – | > 100 µM | > 100 µM | > 100 µM | > 100 µM | > 100 µM | > 100 µM | 89.2 µM |
| COC(=O)c1c2c(cc3c1CC1(Cc4cc5c(c(C=O)c4C1)CCC5)C3)CCC2 (stereo unspecified) | > 100 µM | 56.7 µM | > 100 µM | > 100 µM | – | > 100 µM | 95.2 µM | 57.3 µM | > 100 µM | 61.7 µM |
| O=C1c2ccccc2-c2nc3ccncc3n21 | – | > 100 µM | > 100 µM | > 100 µM | > 100 µM | > 100 µM | > 100 µM | > 100 µM | > 100 µM | > 100 µM |
| CC1OC(OC2C(O[C@H]3CC[C@@]4(C)C(=CC[C@H]5[C@@H]6C[C@@H]7O[C@]8(CC[C@@H](C)CO8)[C@@H](C)[C@@H]7[C@@]6(C)CC[C@@H]54)C3)OC(CO)C(O)C2OC2OC(CO)C(O)C(O)C2O)C(O)C(O)C1O (stereo partly specified) | 3.15 µM | > 100 µM | 4.43 µM | 3.29 µM | 3.41 µM | 4.09 µM | 3.34 µM | – | 4.03 µM | 3.26 µM |
| COc1cc2c(/C=C3/C(=O)Nc4ccccc43)c(Cl)n(Cc3ccc(Cl)cc3)c2cc1C | 3.4 µM | – | 4.85 µM | 1.27 µM | 0.665 µM | 1.07 µM | 0.432 µM | 1.23 µM | 0.969 µM | 14.5 µM |
| C=C(Br)CN=CN(C)C | > 100 µM | > 100 µM | > 100 µM | > 100 µM | > 100 µM | > 100 µM | – | > 100 µM | > 100 µM | > 100 µM |
| ClC1=NN=C(c2c[nH]c3ccccc23)CC1NCc1ccccc1 (stereo unspecified) | > 100 µM | > 100 µM | > 100 µM | > 100 µM | > 100 µM | > 100 µM | – | > 100 µM | > 100 µM | > 100 µM |
| Oc1ccc(C(O)C2CCCCN2)cc1O (stereo unspecified) | > 100 µM | – | > 100 µM | > 100 µM | > 100 µM | > 100 µM | – | > 100 µM | > 100 µM | > 100 µM |
| CCCCCC[C@H]([C@H](C)O)n1cnc2c(N)ncnc21 | – | > 100 µM | > 100 µM | > 100 µM | > 100 µM | > 100 µM | > 100 µM | > 100 µM | > 100 µM | > 100 µM |
| O=S(=O)(Nc1nc2ccccc2nc1N1CCCCCC1)c1ccccc1 | – | > 100 µM | 57.5 µM | 86.7 µM | > 100 µM | > 100 µM | 31.9 µM | 48.8 µM | 45 µM | > 100 µM |
| O=c1c2cc(Br)cc(Br)c2[nH]c(=S)n1-c1ccc(N=Nc2ccc(O)c3cccnc23)cc1 | > 100 µM | – | > 100 µM | > 100 µM | > 100 µM | > 100 µM | – | 62.3 µM | – | 43.2 µM |
